Experimental data from patent publication US5141960A, “Tricyclic glycinamide derivatives as anti-convulsants” (G. D. Searle & Co., priority 1991, dated 1992).

Assays:
[1] = system: convulsions and death induced by 3-mercaptopropionic acid; assay: 3-Mercaptopropionic acid (3-MPA) induced convulsions; type: in vivo, male Swiss albino mice (CD1); details: for 3-MPA score: total number of mice protected for two groups of 5 animals, 30 min: 30 min before convulsions induced; for activity as inhibitors of tonic convulsions: overall, 3-MPA induced, oral, mice
Method: (§1) Treatment of a mammal afflicted by or susceptible to certain CNS disorders is accomplished by administration of a therapeutically-effective amount of a compound of Formula I. In particular, compounds 1-3 of Table 1 were evaluated by in vitro and in vivo animal model assays to determine the pharmacological properties of such compounds and their suitability for use as therapeutic drugs in humans. These biological assays, as described below, consisted of prevention of induced convulsions in mice, a TCP binding study in rat brain, determination of acute toxicity in mice and an animal behavior assay. Except as otherwise specified, the animals used in the in vivo test were male Swiss albino mice of weight 22 to 33 g [CD1, Charles River, France], housed in groups of 10 on a 12-hour dark-light cycle for at least one week and fasted overnight prior to testing.
Compounds of Formula I were examined as inhibitors of convulsions and death induced by the convulsant agent 3-mercaptopropionic acid (3-MPA, 120 mg/kg subcutaneously) [W. van Dorsser, D. Barris, A. Cordi and J. Roba, Arch. Int. Pharmacodyn., 266, 239-249 (1983)]. The compounds of the invention were administered orally at a dosage of either 100 mg/kg or 30 mg/kg in a volume of 10 ml/kg each to 5 mice, at intervals of 30 minutes or 2 hours before convulsions were induced. The number of mice protected against tonic convulsions and the number of dead mice were noted. Results are given in Table II as a score which represents the total number of mice protected for two groups of 5 animals (3-MPA).

[2] = target: TCP (1-[1-(2-thienyl)cyclohexyl]piperidine) binding in rat brain synaptic membranes (SPM); assay: TCP binding study; details: 2 nM tritiated TCP, pH 7.4, 25° C., 60 min
Method: The effect of compounds of Formula I on TCP (1-[1-(2-thienyl)cyclohexyl]piperidine) binding was measured in rat brain synaptic membranes (SPM) prepared by known methods [J. B. Monahan & J. Michel; J. Neurochem., 48, 1699-1708 (1987)]. Prior to their use in the binding assay, frozen SPM were thawed, then diluted twenty fold with 50 mM Tris/acetate [pH 7.4, containing 0.04% (v/v) Triton X-100], incubated for 30 min. at 37° C. and centrifuged at 95,000 xg for 15 min. The Triton X-100 treated SPM were washed with 5 mM Tris/HCl (pH 7.4) and centrifuged a total of six times. Compound of the invention was incubated at differing concentrations with SPM (0.2-0.4 mg protein) and 2 nM tritiated TCP, in a total volume of 0.5 ml of 5 mM Tris/HCl buffer (pH 7.4) at 25° C. for 60 min. The samples were filtered through glass fiber filters (Schleicher & Schuell #32) which had been pretreated with 0.05% (v/v) polyethyleneimine, washed with 2 ml of ice-cold 5 mM Tris/HCl buffer, and then counted on a Beckman LS 5800 liquid scintillation counter with automatic corrections for quenching and counting efficiency. Inhibition of TCP binding was measured as a decrease in basal binding. […] TCP binding inhibition values (IC50) were calculated using logit-log analysis and calculations and regression analysis were performed using templates developed for Lotus 123 by known methods [L. M. Pullan, Computer Appli. […]

[3] = Acute toxicity (LD50, oral); set-up: species or system male mice; details: mouse, in vivo, mice, mortality over 15 days
Method: as §1
The acute toxicity was determined after oral administration of the test compound to mice. […] Doses used in the test were determined by observing toxic effects on the mice, which doses varied from 3,000 mg/kg down to about 3 mg/kg. The mortality was recorded over a period of 15 days. The LD50 result in Table II was calculated according to published methods [Lichtfield and Wilcoxon, J. Pharmacol. Exp. Ther., 96, 99 (1949)] and is expressed in mg of test compound per kilogram of mouse body weight.

[4] = set-up: species or system mice; details: mouse, in vivo
Method: as §1
Behavioral effect of compounds of the invention on animals were determined by observations taken at 5 to 6 hours and at 24 hours after administration of compounds of the invention. Determinations were made based on a method derived from that of S. Irwin [See R. A. Turner, Screening Methods in Pharmacology, Chapter 3, pages 22-34, Academic Press, N.Y. (1965)]. If an anomaly were noted, the observation was extended and smaller doses were tested. […]

[5] = compound orally at 100 mg/kg or 30 mg/kg, 3-MPA 120 mg/kg s.c.

Row | Compound | 3-MPA score: total number of mice protected for two groups of 5 animals, 30 min [1, 5] | activity as inhibitors of tonic convulsions [1] | 3-MPA score: total number of mice protected for two groups of 5 animals, 2 hrs ([1]; compound orally at 100 mg/kg or 30 mg/kg, 2 hours before convulsions induced, 3-MPA 120 mg/kg s.c.) | IC50 [2] [µM] | LD50 at 360 h [3] [mg/kg] | Behavior: sedation (SED), dose at which the behavior is observed [4] [mg/kg] | Behavior: convulsions (CON), dose at which the behavior is observed [4] [mg/kg]
1 | NC(=O)CNC1c2ccccc2CSc2ccccc21 (stereo not shown) [Compound 3, 2-(2,3-6,7-dibenzo-4-thiacycloheptanylamino)acetamide] | 10 | very good activity | – | – | – | – | –
2 | NC(=O)CNC1c2ccccc2CCc2ccccc21 [Compound 1, 2-(2,3-6,7-dibenzocycloheptanylamino)acetamide] | 10 | very good activity | 10 | 38 | 780 | 300 | –
3 | NC(=O)CNC1c2ccccc2C=Cc2ccccc21 [Compound 2, 2-(2,3-6,7-dibenzocyclohept-4-enylamino)acetamide] | 3 | – | – | – | – | – | 1000
